Consider seven compounds from patent US20240376099A1, “COMPOUNDS AND COMPOSITIONS AS INHIBITORS OF ENDOSOMAL TOLL-LIKE RECEPTORS” (Novartis AG, priority 2016, published 2024).

This assay has as its target T1, TLR8 (Homo sapiens, UniProt Q9NR97).
T1 sequence (Q9NR97 27-1041): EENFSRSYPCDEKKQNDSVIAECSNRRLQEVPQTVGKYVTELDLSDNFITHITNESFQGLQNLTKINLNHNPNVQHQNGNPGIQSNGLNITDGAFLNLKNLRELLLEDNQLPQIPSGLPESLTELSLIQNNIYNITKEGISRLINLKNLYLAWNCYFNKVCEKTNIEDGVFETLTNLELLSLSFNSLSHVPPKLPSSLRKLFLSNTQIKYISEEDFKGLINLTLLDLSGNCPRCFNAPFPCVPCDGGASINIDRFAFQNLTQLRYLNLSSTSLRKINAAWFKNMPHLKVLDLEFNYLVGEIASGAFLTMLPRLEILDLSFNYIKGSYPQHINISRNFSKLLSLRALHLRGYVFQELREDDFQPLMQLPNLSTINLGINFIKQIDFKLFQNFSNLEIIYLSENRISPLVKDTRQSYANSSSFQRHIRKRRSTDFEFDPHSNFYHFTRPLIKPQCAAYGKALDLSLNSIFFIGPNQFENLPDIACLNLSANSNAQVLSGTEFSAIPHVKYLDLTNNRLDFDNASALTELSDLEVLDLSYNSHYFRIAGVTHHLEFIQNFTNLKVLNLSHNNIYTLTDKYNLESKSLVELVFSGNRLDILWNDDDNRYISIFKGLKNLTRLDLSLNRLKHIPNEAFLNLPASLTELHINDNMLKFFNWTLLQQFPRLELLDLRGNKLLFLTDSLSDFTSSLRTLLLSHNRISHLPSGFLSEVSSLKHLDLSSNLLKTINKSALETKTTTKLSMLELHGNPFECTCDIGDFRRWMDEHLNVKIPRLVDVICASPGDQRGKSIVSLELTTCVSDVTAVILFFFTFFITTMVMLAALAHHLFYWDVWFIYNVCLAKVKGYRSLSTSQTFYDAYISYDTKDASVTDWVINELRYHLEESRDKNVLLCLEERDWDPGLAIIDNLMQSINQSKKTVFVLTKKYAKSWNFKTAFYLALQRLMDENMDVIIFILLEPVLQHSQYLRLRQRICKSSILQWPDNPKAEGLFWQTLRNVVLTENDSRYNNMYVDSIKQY
The assay is described as follows: huPBMC TLR8 Antagonist IL-6 TR-FRET Assay. On the set-up: Fresh blood was collected from normal human donors; endogenous in cells; host or cells: human PBMCs from fresh donor blood. The assay is classed as cell-based. As to conditions: human PBMCs stimulated with ssRNA40 1 μg/ml (DOTAP), 14-16 hrs; IL-6 TR-FRET read-out. An outline of the steps: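 Human PBMCs from fresh donor blood (150,000 cells/well) stimulated 14–16 h at 37 °C with DOTAP-complexed ssRNA40 (final 1 μg/ml for TLR8, 10 μg/mL for TLR7) or ODN2216 (final 0.3 μM, TLR9), 0.25% DMSO, ten-point 1/3 compound dilutions. Supernatant IL-6 read by HTRF (TLR8); IFNα by IFNα2b AlphaLISA (TLR7/TLR9).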

pIC50: −log10 of the molar value.

Consider `Cc1cc(N2CCc3c(c(C)nn3CC34CCC(N5CC[C@H](O)C5)(CC3)CC4)C2)c2cnn(C)c2n1` [compound 75, (S)-1-(4-((5-(1,6-dimethyl-1H-pyrazolo[3,4-b]pyridin-4-yl)-3-methyl-4,5,6,7-tetrahydro-1H-pyrazolo[4,3-c]pyridin-1-yl)methyl)bicyclo[2.2.2]octan-1-yl)pyrrolidin-3-ol], for which the pIC50 (usually −log10 of the IC50, conventionally taken in molar units) is 6.87. The value for `Cc1cc(N2CCc3c(c(C)nn3CC34CCC(N(C)C5CCC5)(CC3)CC4)C2)c2cnn(C)c2n1` [compound 79, N-cyclobutyl-4-((5-(1,6-dimethyl-1H-pyrazolo[3,4-b]pyridin-4-yl)-3-methyl-4,5,6,7-tetrahydro-1H-pyrazolo[4,3-c]pyridin-1-yl)methyl)-N-methylbicyclo[2.2.2]octan-1-amine] was 6.87; that for `Cc1cc(N2CCc3c(c(C)nn3CC34CCC(N5C[C@H](O)[C@@H](O)C5)(CC3)CC4)C2)c2cnn(C)c2n1` [compound 80, (3S,4S)-1-(4-((5-(1,6-dimethyl-1H-pyrazolo[3,4-b]pyridin-4-yl)-3-methyl-4,5,6,7-tetrahydro-1H-pyrazolo[4,3-c]pyridin-1-yl)methyl)bicyclo[2.2.2]octan-1-yl)pyrrolidine-3,4-diol] was 6.33; that for `Cc1nn(CC23CCC(N4CCCC4)(CC2)CC3)c2c1CN(c1ccnc(-c3ccccc3)c1)CC2` [compound 85, 3-methyl-5-(2-phenylpyridin-4-yl)-1-((4-(pyrrolidin-1-yl)bicyclo[2.2.2]octan-1-yl)methyl)-4,5,6,7-tetrahydro-1H-pyrazolo[4,3-c]pyridine] was 6.65. On to `Cc1cc(N2CCc3c(c(C)nn3CC34CCC(N5CCCC5)(CC3)CC4)C2)c2ccncc2n1` [compound 86, 2-methyl-4-(3-methyl-1-((4-(pyrrolidin-1-yl)bicyclo[2.2.2]octan-1-yl)methyl)-6,7-dihydro-1H-pyrazolo[4,3-c]pyridin-5(4H)-yl)-1,7-naphthyridine], for which the pIC50 was 7.32.

As for `Cc1cc(N2CCc3c(c(C)nn3CCC34CCC(N)(CC3)CC4)C2)c2cnn(C)c2n1` [compound 91, 4-(2-(5-(1,6-dimethyl-1H-pyrazolo[3,4-b]pyridin-4-yl)-3-methyl-4,5,6,7-tetrahydro-1H-pyrazolo[4,3-c]pyridin-1-yl)ethyl)bicyclo[2.2.2]octan-1-amine], the pIC50 was 6.42. `Cc1cc(N2CCc3c(c(C)nn3CC34CCC(N)(CC3)CC4)C2)c2ccnc(C)c2n1` [compound 92, 4-((5-(2,8-dimethyl-1,7-naphthyridin-4-yl)-3-methyl-4,5,6,7-tetrahydro-1H-pyrazolo[4,3-c]pyridin-1-yl)methyl)bicyclo[2.2.2]octan-1-amine]: the pIC50 is 7.40.
